In patent US12398107B2, “Fungicidal nitroanilino substituted pyrazoles” (FMC Corporation, priority 2018, dated 2025):

Assays:
Type in all cases: in vivo
[1] = tested on: Puccinia recondita f. sp. tritici; assay: Test B: wheat leaf rust, preventive spray on wheat seedlings; conditions: 100 = 100% disease control, 0 = no control relative to controls
Outline: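 Compounds in acetone/water (50/50) with 250 ppm PEG400, sprayed to run-off on wheat seedlings at stated ppm; inoculated next day with P. recondita spores. Held 24 h saturated at 20° C., then 7 days in growth chamber at 20° C.; rating 0–100 = % disease control vs controls.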

[2] = tested on: Alternaria solani; assay: Test F: tomato early blight, preventive spray on tomato seedlings; conditions: 100 = 100% disease control, 0 = no control
Outline: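 Compounds in acetone/water (50/50) with 250 ppm PEG400, dosed in ppm, sprayed to run-off on tomato seedlings; next day inoculated with A. solani spores. Held 48 h saturated at 27° C, then 3 days at 20° C; visual rating 0–100% disease control relative to controls.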

[3] = tested on: Blumeria graminis f. sp. tritici; assay: Test C: wheat powdery mildew, preventive spray on wheat seedlings; conditions: rated after 8 days, 100 = 100% disease control, 0 = no control
Outline: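 Compound dissolved in acetone (3% of final volume), then suspended in 50/50 acetone/water with 250 ppm PEG400 and sprayed to run-off on wheat seedlings. Inoculated next day with B. graminis f. sp. tritici spore dust, kept 8 days at 20° C; visual rating, 100 = full control, 0 = none, relative to controls.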

[4] = tested on: Phakopsora pachyrhizi; assay: Test D: Asian soybean rust, preventive spray on soybean seedlings; conditions: 100 = 100% disease control, 0 = no control
Outline: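 Soybean seedlings sprayed to run-off with compound suspension (ppm, in 50/50 acetone/water with 250 ppm PEG400), inoculated next day with P. pachyrhizi spores, held 24 h saturated at 22°C then 8 days at 22°C. Visual rating 0-100% disease control relative to controls.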

[5] = tested on: Botrytis cinerea; assay: Test E: tomato Botrytis, preventive spray on tomato seedlings; conditions: 100 = 100% disease control, 0 = no control
Outline: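 Tomato seedlings sprayed to run-off with compound (ppm) in acetone/water with 250 ppm PEG400, then inoculated next day with B. cinerea spores. Held 48 h at 20 °C in saturated atmosphere, then 3 days at 24 °C. Visual rating 0–100% disease control relative to untreated controls.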

[6] = tested on: Septoria tritici; assay: Test A: wheat leaf blotch, preventive spray on wheat seedlings; conditions: 100 = 100% disease control, 0 = no control relative to controls
Outline: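 Compounds were suspended in acetone/water (50/50) with 250 ppm PEG400 and sprayed to run-off on wheat seedlings. The next day the seedlings were inoculated with Septoria tritici spores, held 48 h at 24 °C in saturated humidity, then 17 days at 20 °C. Disease control was rated 0–100 relative to controls.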

Compound | Test B disease control rating (wheat leaf rust) ([1]; 50 ppm) [%] | Test F disease control rating (tomato early blight) ([2]; 50 ppm) [%] | Test C disease control rating (wheat powdery mildew) ([3]; 50 ppm) [%] | Test D disease control rating (Asian soybean rust) ([4]; 50 ppm) [%] | Test E disease control rating (tomato Botrytis) ([5]; 50 ppm) [%] | Test A disease control rating (wheat leaf blotch) ([6]; 50 ppm) [%] | pest or weed control at 10 ppm ([1]; 10 ppm, read-out: Test B disease control rating (wheat leaf rust)) [%] | pest or weed control at 50 ppm ([1]; 50 ppm, read-out: Test B disease control rating (wheat leaf rust)) [%] | pest or weed control at 10 ppm ([2]; Alternaria solani, 10 ppm, read-out: Test F disease control rating (tomato early blight)) [%] | pest or weed control at 50 ppm ([2]; Alternaria solani, 50 ppm, read-out: Test F disease control rating (tomato early blight)) [%] | pest or weed control at 10 ppm ([3]; Blumeria graminis, 192 h, 10 ppm, read-out: Test C disease control rating (wheat powdery mildew)) [%] | pest or weed control at 50 ppm ([3]; Blumeria graminis, 192 h, 50 ppm, read-out: Test C disease control rating (wheat powdery mildew)) [%] | pest or weed control at 10 ppm ([4]; Phakopsora pachyrhizi, 10 ppm, read-out: Test D disease control rating (Asian soybean rust)) [%] | pest or weed control at 50 ppm ([4]; Phakopsora pachyrhizi, 50 ppm, read-out: Test D disease control rating (Asian soybean rust)) [%] | pest or weed control at 10 ppm ([5]; Botrytis cinerea, 10 ppm, read-out: Test E disease control rating (tomato Botrytis)) [%] | pest or weed control at 50 ppm ([5]; Botrytis cinerea, 50 ppm, read-out: Test E disease control rating (tomato Botrytis)) [%] | pest or weed control at 10 ppm ([6]; Zymoseptoria tritici, 10 ppm, read-out: Test A disease control rating (wheat leaf blotch)) [%] | pest or weed control at 50 ppm ([6]; Zymoseptoria tritici, 50 ppm, read-out: Test A disease control rating (wheat leaf blotch)) [%]
CCc1nn(C)c(Nc2ccc(C)cc2[N+](=O)[O-])c1-c1ccc(F)cc1F [Compound 175] | 86 | 0 | 79 | 0 | 88 | 100 |  |  |  |  |  |  |  |  |  |  |  | 
Cc1ccc(Nc2c(-c3c(F)cccc3F)c(C)nn2C)c([N+](=O)[O-])c1 [Compound 105] | 74 | 0 | 86 | 0 | 73 | 99 |  |  |  |  |  |  |  |  |  |  |  | 
Cc1cc(F)c(Nc2c(-c3ccc(Cl)cc3Cl)c(C)nn2C)c([N+](=O)[O-])c1 [Compound 143] | 100 | 100 | 96 | 87 | 99 | 99 |  |  |  |  |  |  |  |  |  |  |  | 
Cc1cc(Cl)cc([N+](=O)[O-])c1Nc1c(-c2ccc(F)cc2Cl)c(C)nn1C [Compound 33] | 100 | 85 | 99 | 92 | 99 | 100 |  |  |  |  |  |  |  |  |  |  |  | 
Cc1cccc([N+](=O)[O-])c1Nc1c(-c2c(F)cc(F)cc2Br)c(C)nn1C [Compound 169] | 100 | 0 | 100 | 0 | 98 | 100 |  |  |  |  |  |  |  |  |  |  |  | 
Cc1nn(C)c(Nc2c(F)cc(F)cc2[N+](=O)[O-])c1-c1ccc(Cl)cc1Cl [Compound 9] | 100 | 99 | 97 | 0 | 97 | 100 |  |  |  |  |  |  |  |  |  |  |  | 
COc1cc(F)c(-c2c(C)nn(C)c2Nc2c(Cl)cc(Cl)cc2[N+](=O)[O-])c(F)c1 [Compound 82] | 100 | 97 | 58 | 59 | 96 | 100 |  |  |  |  |  |  |  |  |  |  |  | 
Cc1nn(C)c(Nc2c(Cl)cccc2[N+](=O)[O-])c1-c1ccc(F)cc1F [Compound 79] | 100 | 0 | 91 | 44 | 98 | 100 |  |  |  |  |  |  |  |  |  |  |  | 
COc1ccc(-c2c(C)nn(C)c2Nc2ccc(Cl)cc2[N+](=O)[O-])c(Cl)c1 [Compound 74] | 86 | 85 | 81 | 74 | 99 | 99 |  |  |  |  |  |  |  |  |  |  |  | 
COc1ccc(-c2c(C)nn(C)c2Nc2c(F)cccc2[N+](=O)[O-])c(Cl)c1 [Compound 27] | 100 | 99 | 91 | 87 | 100 | 100 |  |  |  |  |  |  |  |  |  |  |  | 
Cc1nn(C)c(Nc2c(F)cccc2[N+](=O)[O-])c1-c1c(F)cc(F)cc1Cl [Compound 68, 4-(2-chloro-4,6-difluorophenyl)-N-(2-fluoro-6-nitrophenyl)-1,3-dimethyl-1H-pyrazol-5-amine] |  |  |  |  |  |  | 100 | 100 | 98 | 99 | 96 | 100 | 32 | 99 | 100 | 100 | 100 | 100
Cc1nn(C)c(Nc2ccccc2[N+](=O)[O-])c1-c1c(F)cc(F)cc1Br [Compound 154] | 80 | 51 | 98 | 0 | 99 | 99 |  |  |  |  |  |  |  |  |  |  |  | 
Cc1nn(C)c(Nc2c(Cl)cccc2[N+](=O)[O-])c1-c1c(F)cc(F)cc1Br [Compound 163] | 100 | 76 | 98 | 78 | 88 | 99 |  |  |  |  |  |  |  |  |  |  |  | 
COc1cc(F)c(Nc2c(-c3ccc(Cl)cc3Cl)c(C)nn2C)c([N+](=O)[O-])c1 [Compound 138] | 100 | 100 | 93 | 67 | 99 | 100 |  |  |  |  |  |  |  |  |  |  |  | 
COc1cc(F)c(-c2c(C)nn(C)c2Nc2ccc(OC)cc2[N+](=O)[O-])c(F)c1 [Compound 161] | 100 | 99 | 100 | 0 | 100 | 100 |  |  |  |  |  |  |  |  |  |  |  | 
